A short description of data set [1]: Microsomal incubation with CBZ and PHE, adult zebrafish liver microsomes. The class given is in vitro ADME, Danio rerio. The following applies: data not shown. A general note: Liver microsomes are a subcellular fraction often used to study metabolism.
Data set [2] can be described thus: Quantification of compound in stock and culture medium relative to nominal concentration (LC-MS). The class given is physicochemical. The following applies: for Percentage of quantified compound concentration relatively to the nominal concentration: CBZ–E-CBZ. The protocol:
The control and test mediums were also kept in the same incubator until the last time point of the experiment. The embryo media were renewed every 48 h, to avoid medium acidification and oxygen deprivation. At each medium change and at the last time point of the experiment (Figure 9), the media exposed to the embryos were pooled and kept at −80 °C for further use (n = 3). Moreover, samples from the stock solutions kept at 28.5 °C ± 0.3 °C were also taken at 0 and 120 hpf (n = 3), whereas samples were only taken at 96 hpf for the metabolites medium (E-CBZ and HPPH).

Another data set has as its system zebrafish embryos. The following applies: cited from earlier work; for Embryos affected, combining teratogenic and lethal effects: after three days of exposure.
A short description of data set [3]: Microsomal incubation with CBZ and PHE, human liver microsomes. In kind it is in vitro ADME. The following applies: human adult liver microsomes; data not shown. The protocol: Moreover, positive and negative controls were included: pooled human liver microsomes (Gibco™, HMMCPL–PL050B, Thermo Fisher Scientific) and Insect Cell Control Supersomes™ (lot number: PL050 C-B, 456201, Corning Incorporated, Corning, NY, USA), respectively. Based on Oziolor et al., microsomal reactions were initiated after adding the substrate solution at a concentration of 100 µM (see Supplementary Table S1) in a mixture of 100 mM K3PO4 buffer (Corning® Gentest™, NY, USA) of pH 7.4, 5% and 1% of NADPH regenerating system reagents A and B, respectively (Corning, Woburn, MA, USA) and 200 µg/mL of microsomal protein, for a total volume of 500 µL. The reactions were performed at 28.5 ± 0.3 °C until the time point of interest. […]
For the quantification of the metabolites E-CBZ and HPPH, the samples processed were the microsomal incubation reactions (see Section 4.3.2), the zebrafish culture and stock medium (4.2.1) and the zebrafish embryos/larvae extracts (see Section 4.2.3). […] To quantify the concentrations of E-CBZ and HPPH in these samples, standard curves (in duplicate) of 10 concentrations for E-CBZ (0.5–400 ng/mL; see Supplementary Table S1) and HPPH (2–1600 ng/mL; see Supplementary Table S1) were prepared, as were quality controls. […]

Structures are written as SMILES. Like-named read-outs stand apart in the source and are kept apart here. A value given as a limit tells only on which side of the number the result lay.

Consider two molecules from PMC8657848, “Developmental Toxicity and Biotransformation of Two Anti-Epileptics in Zebrafish Embryos and Early Larvae” (International Journal of Molecular Sciences, 2021).

Regarding `NC(=O)N1c2ccccc2C=Cc2ccccc21` [CBZ, carbamazepine], the “Decrease of parent compound after 240 min (pilot investigation)” value in data set [1] and in data set [3] was “no changes” in each case. Further, the “Percentage of quantified compound concentration relatively to the nominal concentration” value in data set [2] (Culture medium exposed to embryos/larvae, nominal 31.25 µM, 48 hpf) is given as 95.4 ± 16.2%; in data set [2] (Culture medium, nominal 31.25 µM, 96 hpf) it was 101.2 ± 21.7%; in data set [2] (Culture medium, nominal 31.25 µM, 120 hpf), 109.6 ± 5.4%; in data set [2] (Culture medium, nominal 85 µM, 48 hpf), 110.0 ± 4.8%; in data set [2] (Culture medium, nominal 85 µM, 96 hpf), 116.8 ± 4.7%; in data set [2] (Culture medium, nominal 85 µM, 120 hpf) it was 113.9 ± 4.5%. Moreover, the “Percentage of quantified compound concentration relatively to the nominal concentration” value in data set [2] (Culture medium, nominal 250 µM, 48 hpf) came out at 113.4 ± 14.1%; in data set [2] (Culture medium, nominal 250 µM, 96 hpf) it was 114.2 ± 2.6%; in data set [2] (Culture medium, nominal 250 µM, 120 hpf), 111.5 ± 2.6%; in data set [2] (Stock, nominal 31.25 µM, 0 hpf, average of three replicates), 95.6 ± 2.0%; in data set [2] (Stock, nominal 31.25 µM, 120 hpf), 101.6 ± 7.7%; in data set [2] (Stock, nominal 85 µM, 0 hpf), 81.7 ± 18.7%. Further, the “Percentage of quantified compound concentration relatively to the nominal concentration” value in data set [2] (Stock, nominal 85 µM, 120 hpf) was determined as 90.4 ± 6.6%; in data set [2] (Stock, nominal 250 µM, 0 hpf), 92.1 ± 5.3%; in data set [2] (Stock, nominal 250 µM, 120 hpf), 98.4 ± 4.6%. Also, the entries for the “Embryos affected, combining teratogenic and lethal effects” value in the data set with zebrafish embryos (31.25 µM) and in the data set on zebrafish embryos (250 µM) were “less than 20%” and “around 50%”, respectively. Moreover, in the data set on zebrafish embryos (250 µM), the “Percentage of larvae affected at 72 hpf” value was 48.3 ± 11.5%.

On to `O=C1NC(=O)C(c2ccccc2)(c2ccccc2)N1` [PHE, phenytoin], for which the “Decrease of parent compound after 240 min (pilot investigation)” value in data set [1] and in data set [3] was “No decrease” throughout. Also, in data set [2] (31.25 µM, stable over time), the “Quantified concentration in culture medium lower than the nominal concentration” value was determined as 20%. Besides, the “Quantified concentration lower than the nominal concentration” value in data set [2] (85 µM, culture medium at 96 and 120 hpf and stock medium at 120 hpf) is on record as “around 35%”. Further, the “Quantified concentration lower than the expected concentration” value in data set [2] (85 µM, stock medium at 0 hpf and culture medium at 48 hpf) is reported as “around 20%”. Besides, the “Quantified concentration as percentage of the nominal concentration” value in data set [2] (250 µM, stock and culture medium, all time points) is reported as at most 45%. The “Dissolution / precipitation in EMS” value in data set [2] (visually observed in the stock medium for 85 and 250 µM) is reported as “did not dissolve properly in the EMS and/or precipitated in EMS”. Further, the “Embryos affected, combining teratogenic and lethal effects” value in the data set on zebrafish embryos (31.25 µM) is reported as “less than 20%”; in the data set with zebrafish embryos (250 µM), “around 50%”. Also, in the data set with zebrafish embryos (250 µM), the “Percentage of larvae affected at 72 hpf” value is 45.0 ± 21.8%.
